Reference: patent US20250270227A1, “CAMPTOTHECIN DERIVATIVE, AND PHARMACEUTICAL COMPOSITION AND USE THEREOF” (SIMCERE ZAIMING PHARMACEUTICAL CO., LTD., priority 2021, published 2025)
pIC50: −log10 of the molar value. Like-named read-outs stand apart in the source and are kept apart here.

How the values were obtained:
Format in all cases: cell-based
[1] = system: Human colorectal cancer cell line HCT116; assay: Test 1 of anti-proliferative activity against tumor cells (Cell-Titer Glo); settings: for IC50: read-out: HCT116 Anti-proliferative activity IC50 (nM), HCT116 cells, cultured 3 days with compound, Cell-Titer Glo; for pIC50: HCT116 cells, cultured 3 days with compound, Cell-Titer Glo, read-out: HCT116 Anti-proliferative activity IC50
Procedure: (§1) Cell culture: HCT116 cells and SKBR3 cells were cultured in McCoy's 5a medium containing 10% fetal bovine serum+1% penicillin-streptomycin at 37° C. and 5% CO2, and OVCAR3 cells were cultured in 1640 medium containing 20% fetal bovine serum+2 μg/mL bovine insulin+1% penicillin-streptomycin at 37° C. and 5% CO2. Cells in logarithmic growth phase were suitable for the experiment.
(§2) Detection of cell proliferation activity: The inhibitory activity of the compounds on the proliferation of the three cell lines HCT116, SKBR3 and OVCAR3 was detected using Cell-Titer Glo reagent. HCT116 cells (1500 cells per well), SKBR3 cells (3000 cells per well) and OVCAR3 cells (5000 cells per well) were seeded in 96-well plates and cultured at 37° C. and 5% CO2 for 24 h. The solution of the compound to be tested (the compound was dissolved in DMSO with the concentration of the compound being 1 mM, then the compound was diluted to 3 μM with DMSO, with 3-fold dilution and a total of 9 concentrations, and 10 μL of the prepared compound solution was transferred to a 96-well plate with the final concentration of 0-300 nM) was added. The cells were placed at 37° C. and 5% CO2 for further culture. HCT116 cells were cultured for 3 days, and SKBR3 cells and OVCAR3 cells were cultured for 5 days. The cell viability was detected by adding Cell-Titer Glo reagent.
(§3) Additionally, a negative control group and a positive control group were provided as Bottom and Top, respectively. In the negative control group, the cells were not added, only the same volume of medium was added, and other operations were consistent with those in the experimental group; in the positive control group, the test compound was not added, only the same volume of DMSO was added, and other operations were consistent with those in the experimental group.
(§4) Data analysis: The % compound inhibition was calculated, and fitting was performed to obtain IC50 of the compound.
(§5) % Compound inhibition=1−100%*(Signal−Bottom)/(Top−Bottom).
(§6) Signal represents the signal value of the experimental group, Bottom represents the average signal value of the negative control group, and Top represents the average signal value of the positive control group.

[2] = system: human ovarian cancer cell line OVCAR3; assay: as above; settings: for IC50: read-out: OVCAR3 Anti-proliferative activity IC50 (nM); for pIC50: OVCAR3 cells, cultured 5 days with compound, Cell-Titer Glo, read-out: OVCAR3 Anti-proliferative activity IC50
Procedure: as §1, §2, §3, §4, §5, §6

[3] = system: Human ovarian cancer cell line SK-OV-3; assay: Test 2 of anti-proliferative activity against tumor cells (Cell-Titer Glo); settings: for IC50: read-out: SK-OV-3 Anti-proliferative activity IC50 (nM); for pIC50: SK-OV-3 cells, 5 days, Cell-Titer Glo, read-out: SK-OV-3 Anti-proliferative activity IC50
Procedure: (§7) Cell culture: SK-OV-3 cells were cultured in McCoy's 5a medium containing 10% fetal bovine serum+1% penicillin-streptomycin, PA-1 cells were cultured in MEM medium containing 10% fetal bovine serum+1% MEM NEAA+1% sodium pyruvate+1% penicillin-streptomycin, NCI-H82 cells and MDA-MB-231 cells were cultured in 1640 medium containing 10% fetal bovine serum+1% penicillin-streptomycin, A549 cells were cultured in DMEM medium containing 10% fetal bovine serum+1% penicillin-streptomycin, all under conditions of 37° C. and 5% CO2. Cells in logarithmic growth phase were suitable for the experiment.
(§8) Detection of cell proliferation activity: The inhibitory activity of the compounds on the proliferation of the five cell lines SK-OV-3, PA-1, NCI-H82, MDA-MB-231 and A549 was detected using Cell-Titer Glo reagent. SK-OV-3 cell (1000 cells per well), PA-1 cells (800 cells per well), NCI-H82 cells (5000 cells per well), MDA-MB-231 cells (3000 cells per well) and A549 cells (400 cells per well) were seeded in 96-well plates and cultured at 37° C. and 5% CO2 for 24 h. The compound to be tested was dissolved in DMSO to a concentration of 1 mM, then subjected to gradient dilution with DMSO and corresponding medium, and transferred to 96-well cell plates to a final concentration of 300 nM (initial concentration), with 3-fold dilution and a total of 9 concentration points. The cells were cultured at 37° C. and 5% CO2 for additional 5 days. The cell viability was detected by adding Cell-Titer Glo reagent.
as §3, §4, §5, §6

[4] = system: human breast cancer cell line MDA-MB-231; assay: as above; settings: for IC50: read-out: MDA-MB-231 Anti-proliferative activity IC50 (nM); for pIC50: MDA-MB-231 cells, 5 days, Cell-Titer Glo, read-out: MDA-MB-231 Anti-proliferative activity IC50
Procedure: as §7, §8, §3, §4, §5, §6

[5] = system: human non-small cell lung cancer cell line A549; assay: as above; settings: for IC50: read-out: A549 Anti-proliferative activity IC50 (nM), A549 cells, 5 days, Cell-Titer Glo; for pIC50: A549 cells, 5 days, Cell-Titer Glo, read-out: A549 Anti-proliferative activity IC50
Procedure: as §7, §8, §3, §4, §5, §6

[6] = system: human ovarian cancer cell line PA-1; assay: as above; settings: for IC50: read-out: PA-1 Anti-proliferative activity IC50 (nM), PA-1 cells, 5 days, Cell-Titer Glo; for pIC50: PA-1 cells, 5 days, Cell-Titer Glo, read-out: PA-1 Anti-proliferative activity IC50
Procedure: as §7, §8, §3, §4, §5, §6

[7] = system: human small cell lung cancer cell line NCI-H82; assay: as above; settings: Homo sapiens, NCI-H82, 120 h, read-out: NCI-H82 Anti-proliferative activity IC50 (nM), NCI-H82 cells, 5 days, Cell-Titer Glo
Procedure: as §7, §8, §3, §4, §5, §6

[8] = system: human breast cancer cell line SKBR3; assay: Test 1 of anti-proliferative activity against tumor cells (Cell-Titer Glo); settings: for pIC50: SKBR3 cells, cultured 5 days with compound, Cell-Titer Glo, read-out: SKBR3 Anti-proliferative activity IC50
Procedure: as §1, §2, §3, §4, §5, §6

[9] = Homo sapiens, MDA-MB-231, 120 h

## CC[C@@]1(O)C(=O)OCc2c1cc1n(c2=O)Cc2c-1nc1cc3c(c(Cl)c1c2CNC(=O)CO)OCO3 [Compound 31, (S)-N-((15-chloro-7-ethyl-7-hydroxy-8,11-dioxo-7,8,11,13-tetrahydro-10H-[1,3]dioxolo[4,5-g]pyrano[3′,4′:6,7]indolizino[1,2-b]quinolin-14-yl)methyl)-2-hydroxyacetamide]
[1]; Homo sapiens, HCT-116, 72 h
  IC50: 1.2 nM
[2]; Homo sapiens, OVCAR-3, 120 h
  IC50: 0.2 nM
[3]; Homo sapiens, SK-OV-3, 120 h
  IC50: 12.3 nM
[4]; [9]
  IC50: 13.5 nM
[5]; Homo sapiens, A549, 120 h
  IC50: 15.9 nM
[6]; Homo sapiens, PA-1, 120 h
  IC50: 1.7 nM
[7]
  IC50: 4 nM

## [2H]C1([2H])Oc2cc3nc4c(c(CNC(=O)[C@@H](O)C5CC5)c3cc2O1)Cn1c-4cc2c(c1=O)COC(=O)[C@]2(O)CC [Compound 39-P2, 2-cyclopropyl-N-(((S)-7-ethyl-7-hydroxy-8,11-dioxo-7,8,11,13-tetrahydro-10H-[1,3]dioxolo[4,5-g]pyrano[3′,4′:6,7]indolizino[1,2-b]quinolin-14-yl-2,2-d2)methyl)-2-hydroxyacetamide]
[1]
  pIC50: 8.19
[8]
  pIC50: 8.54
[2]
  pIC50: 9.00
[3]
  pIC50: 8.68
[4]
  pIC50: 7.63
[5]
  pIC50: 7.80
[6]
  pIC50: 8.92

## CC[C@@]1(O)C(=O)OCc2c1cc1n(c2=O)Cc2c-1nc1cc3c(c(F)c1c2CN)OCO3 [Compound 35, (S)-14-(aminomethyl)-7-ethyl-15-fluoro-7-hydroxy-10,13-dihydro-11H-[1,3]dioxolo[4,5-g]pyrano[3′,4′:6,7]indolizino[1,2-b]quinoline-8,11(7H)-dione]
[2]; Homo sapiens, OVCAR-3, 120 h
  IC50: 0.9 nM
[6]; Homo sapiens, PA-1, 120 h
  IC50: 0.8 nM

## CC[C@@]1(O)C(=O)OCc2c1cc1n(c2=O)Cc2c-1nc1cc3c(c(F)c1c2CNC(=O)[C@@H](O)C1CC1)OCO3 [Compound 37-P2, 2-cyclopropyl-N-(((S)-7-ethyl-15-fluoro-7-hydroxy-8,11-dioxo-7,8,11,13-tetrahydro-10H-[1,3]dioxolo[4,5-g]pyrano[3′,4′:6,7]indolizino [1,2-b]quinolin-14-yl)methyl)-2-hydroxyacetamide]
[8]; Homo sapiens, SK-BR-3, 120 h
  pIC50: 8.44
[2]; Homo sapiens, OVCAR-3, 120 h
  pIC50: 8.74
[3]; Homo sapiens, SK-OV-3, 120 h
  pIC50: 8.52
[4]; [9]
  pIC50: 7.59
[5]; Homo sapiens, A549, 120 h
  pIC50: 7.79
[6]; Homo sapiens, PA-1, 120 h
  pIC50: 8.96

## CC[C@@]1(O)C(=O)OCc2c1cc1n(c2=O)Cc2c-1nc1cc3c(c(F)c1c2CNC(=O)C(O)C1CC1)OCO3 (stereo partly drawn) [Compound 37, 2-cyclopropyl-N-(((S)-7-ethyl-15-fluoro-7-hydroxy-8,11-dioxo-7,8,11,13-tetrahydro-10H-[1,3]dioxolo[4,5-g]pyrano[3′,4′:6,7]indolizino [1,2-b]quinolin-14-yl)methyl)-2-hydroxyacetamide]
[1]; Homo sapiens, HCT-116, 72 h
  IC50: 8.1 nM
[8]; Homo sapiens, SK-BR-3, 120 h, read-out: SKBR3 Anti-proliferative activity IC50 (nM), SKBR3 cells, cultured 5 days with compound, Cell-Titer Glo
  IC50: 3.5 nM
[2]; Homo sapiens, OVCAR-3, 120 h
  IC50: 1.2 nM
[3]; Homo sapiens, SK-OV-3, 120 h
  IC50: 3.5 nM
[4]; [9]
  IC50: 23.9 nM
[5]; Homo sapiens, A549, 120 h
  IC50: 19.6 nM
[6]; Homo sapiens, PA-1, 120 h
  IC50: 0.9 nM

## [2H]C1([2H])Oc2cc3nc4c(c(CNC(=O)[C@@H](O)C5CC5)c3cc2O1)Cn1c-4cc2c(c1=O)COC(=O)[C@]2(O)CC [Compound 39-P1, 2-cyclopropyl-N-(((S)-7-ethyl-7-hydroxy-8,11-dioxo-7,8,11,13-tetrahydro-10H-[1,3]dioxolo[4,5-g]pyrano[3′,4′:6,7]indolizino[1,2-b]quinolin-14-yl-2,2-d2)methyl)-2-hydroxyacetamide]
[1]; Homo sapiens, HCT-116, 72 h
  pIC50: 8.34
[8]; Homo sapiens, SK-BR-3, 120 h
  pIC50: 8.72
[2]; Homo sapiens, OVCAR-3, 120 h
  pIC50: 9.22
[3]; Homo sapiens, SK-OV-3, 120 h
  pIC50: 8.72
[4]; [9]
  pIC50: 7.81
[5]; Homo sapiens, A549, 120 h
  pIC50: 7.86
[6]; Homo sapiens, PA-1, 120 h
  pIC50: 9.05
